{
  "source": "ChEMBL document CHEMBL5236590",
  "about": "“Discovery of Novel N-(5-(Pyridin-3-yl)-1H-indazol-3-yl)benzamide Derivatives as Potent Cyclin-Dependent Kinase 7 Inhibitors for the Treatment of Autosomal Dominant Polycystic Kidney Disease” (J Med Chem, 2022)",
  "key": {"[1]": {"target": "Cyclin-dependent kinase 3 (Homo sapiens, UniProt Q00526)", "sequence (Q00526 whole entry)": "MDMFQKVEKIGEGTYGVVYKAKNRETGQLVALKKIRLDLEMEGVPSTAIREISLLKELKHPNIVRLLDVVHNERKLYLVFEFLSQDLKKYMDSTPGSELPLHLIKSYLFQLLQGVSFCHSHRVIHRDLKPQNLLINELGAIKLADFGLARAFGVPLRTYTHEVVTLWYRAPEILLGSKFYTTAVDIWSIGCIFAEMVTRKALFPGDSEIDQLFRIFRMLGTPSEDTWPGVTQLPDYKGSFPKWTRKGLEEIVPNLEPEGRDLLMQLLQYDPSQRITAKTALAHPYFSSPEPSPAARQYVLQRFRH", "assay": "Inhibition of CDK3 (unknown origin)"}, "[2]": {"target": "Serine/threonine-protein kinase pim-1 (Homo sapiens) (UniProt P11309)", "assay": "Inhibition of human partial length wild type Pim-1 (M1/E291) expressed in bacterial system at 1 uM by KINOMEscan analysis relative to control"}, "[3]": {"target": "ALK tyrosine kinase receptor (Homo sapiens) (UniProt Q9UM73)", "assay": "Inhibition of human partial length ALK (I1088/E1409) expressed in mammalian system at 1 uM by KINOMEscan analysis relative to control"}, "[4]": {"target": "RAF proto-oncogene serine/threonine-protein kinase (Homo sapiens) (UniProt P04049)", "assay": "Inhibition of human partial length wild type c-RAF (I330/T640) expressed in bacterial system at 1 uM by KINOMEscan analysis relative to control"}, "[5]": {"target": "Eukaryotic elongation factor 2 kinase (Homo sapiens) (UniProt O00418)", "assay": "Inhibition of human recombinant eEF-2K at 1 uM by radiometric assay relative to control"}, "[6]": {"tested_on": "Epidermal growth factor receptor (Homo sapiens), P00533 [UNDEFINED MUTATION]", "sequence (P00533 whole entry, looked up, stated change not applied)": "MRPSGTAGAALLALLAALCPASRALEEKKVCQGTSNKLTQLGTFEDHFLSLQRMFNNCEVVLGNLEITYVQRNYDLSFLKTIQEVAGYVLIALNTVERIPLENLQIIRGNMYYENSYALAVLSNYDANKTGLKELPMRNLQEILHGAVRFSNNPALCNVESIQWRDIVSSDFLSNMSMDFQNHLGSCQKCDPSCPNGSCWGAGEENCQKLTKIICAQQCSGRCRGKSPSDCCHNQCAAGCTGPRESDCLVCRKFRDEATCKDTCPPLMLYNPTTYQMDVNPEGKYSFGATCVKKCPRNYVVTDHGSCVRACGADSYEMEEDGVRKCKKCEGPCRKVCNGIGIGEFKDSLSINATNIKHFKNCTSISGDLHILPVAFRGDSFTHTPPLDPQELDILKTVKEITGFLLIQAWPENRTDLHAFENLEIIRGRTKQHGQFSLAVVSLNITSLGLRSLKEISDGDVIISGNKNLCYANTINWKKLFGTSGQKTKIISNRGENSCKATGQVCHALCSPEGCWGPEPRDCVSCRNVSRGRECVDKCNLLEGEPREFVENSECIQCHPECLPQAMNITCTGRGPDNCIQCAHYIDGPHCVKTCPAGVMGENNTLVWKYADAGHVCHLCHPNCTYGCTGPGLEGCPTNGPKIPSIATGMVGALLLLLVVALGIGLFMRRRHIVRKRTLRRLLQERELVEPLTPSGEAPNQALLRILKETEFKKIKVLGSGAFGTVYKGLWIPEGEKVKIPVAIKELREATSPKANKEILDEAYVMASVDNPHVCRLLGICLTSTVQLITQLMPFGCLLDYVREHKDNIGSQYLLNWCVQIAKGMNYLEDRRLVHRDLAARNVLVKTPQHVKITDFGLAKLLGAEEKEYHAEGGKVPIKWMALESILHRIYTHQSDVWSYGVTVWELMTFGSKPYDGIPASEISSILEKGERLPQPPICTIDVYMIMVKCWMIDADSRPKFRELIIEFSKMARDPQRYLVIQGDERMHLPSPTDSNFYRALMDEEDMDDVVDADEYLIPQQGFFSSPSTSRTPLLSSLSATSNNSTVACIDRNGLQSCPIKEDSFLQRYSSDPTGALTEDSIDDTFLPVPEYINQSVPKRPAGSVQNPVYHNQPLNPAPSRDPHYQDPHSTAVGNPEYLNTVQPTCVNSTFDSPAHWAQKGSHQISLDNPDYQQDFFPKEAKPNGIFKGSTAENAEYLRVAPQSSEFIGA", "assay": "Inhibition of human partial length EGFR (R669/V1011) G719C mutant expressed in bacterial system at 1 uM by KINOMEscan analysis relative to control"}, "[7]": {"target": "Insulin-like growth factor 1 receptor (Homo sapiens) (UniProt P08069)", "sequence (P08069 31-736 limits assumed)": "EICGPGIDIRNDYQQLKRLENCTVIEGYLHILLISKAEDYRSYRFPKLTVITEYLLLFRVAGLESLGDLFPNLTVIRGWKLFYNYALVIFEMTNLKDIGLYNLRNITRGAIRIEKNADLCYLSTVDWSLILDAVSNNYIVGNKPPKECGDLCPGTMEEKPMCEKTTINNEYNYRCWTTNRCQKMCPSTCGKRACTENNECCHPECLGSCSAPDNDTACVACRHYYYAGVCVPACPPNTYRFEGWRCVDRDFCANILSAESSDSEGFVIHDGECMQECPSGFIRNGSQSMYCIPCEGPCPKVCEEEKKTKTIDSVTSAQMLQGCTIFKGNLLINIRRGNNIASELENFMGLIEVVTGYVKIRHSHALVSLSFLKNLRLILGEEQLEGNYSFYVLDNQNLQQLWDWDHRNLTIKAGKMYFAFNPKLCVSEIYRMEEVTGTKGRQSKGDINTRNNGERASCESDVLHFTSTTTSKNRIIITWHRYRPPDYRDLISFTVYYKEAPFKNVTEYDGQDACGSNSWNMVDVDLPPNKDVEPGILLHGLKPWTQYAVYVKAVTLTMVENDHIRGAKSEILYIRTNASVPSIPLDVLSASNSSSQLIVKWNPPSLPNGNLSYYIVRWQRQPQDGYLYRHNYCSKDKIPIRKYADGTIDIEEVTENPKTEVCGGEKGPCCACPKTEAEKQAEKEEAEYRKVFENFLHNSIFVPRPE", "sequence (P08069 741-1367 limits assumed)": "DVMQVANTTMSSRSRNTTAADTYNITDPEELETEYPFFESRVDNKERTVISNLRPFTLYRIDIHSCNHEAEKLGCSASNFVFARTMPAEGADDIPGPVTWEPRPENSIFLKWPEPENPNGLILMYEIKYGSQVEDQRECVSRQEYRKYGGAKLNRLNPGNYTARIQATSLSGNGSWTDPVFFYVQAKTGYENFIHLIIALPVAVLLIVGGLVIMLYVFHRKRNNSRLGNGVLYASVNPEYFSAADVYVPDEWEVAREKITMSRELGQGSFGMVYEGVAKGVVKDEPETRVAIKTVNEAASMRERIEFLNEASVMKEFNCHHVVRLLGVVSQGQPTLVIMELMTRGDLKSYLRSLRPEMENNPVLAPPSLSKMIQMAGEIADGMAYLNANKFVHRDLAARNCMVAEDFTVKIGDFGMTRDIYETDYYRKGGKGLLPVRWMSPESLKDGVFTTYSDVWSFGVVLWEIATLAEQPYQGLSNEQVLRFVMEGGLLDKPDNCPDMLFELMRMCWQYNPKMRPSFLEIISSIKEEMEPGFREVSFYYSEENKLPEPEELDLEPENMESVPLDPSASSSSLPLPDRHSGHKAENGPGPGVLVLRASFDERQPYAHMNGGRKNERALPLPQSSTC", "assay": "Inhibition of human partial length wild type IGF-1R (L972/D1294) expressed in bacterial system at 1 uM by KINOMEscan analysis relative to control"}, "[8]": {"target": "Inhibitor of nuclear factor kappa-B kinase subunit alpha (Homo sapiens) (UniProt O15111)", "sequence (O15111 whole entry)": "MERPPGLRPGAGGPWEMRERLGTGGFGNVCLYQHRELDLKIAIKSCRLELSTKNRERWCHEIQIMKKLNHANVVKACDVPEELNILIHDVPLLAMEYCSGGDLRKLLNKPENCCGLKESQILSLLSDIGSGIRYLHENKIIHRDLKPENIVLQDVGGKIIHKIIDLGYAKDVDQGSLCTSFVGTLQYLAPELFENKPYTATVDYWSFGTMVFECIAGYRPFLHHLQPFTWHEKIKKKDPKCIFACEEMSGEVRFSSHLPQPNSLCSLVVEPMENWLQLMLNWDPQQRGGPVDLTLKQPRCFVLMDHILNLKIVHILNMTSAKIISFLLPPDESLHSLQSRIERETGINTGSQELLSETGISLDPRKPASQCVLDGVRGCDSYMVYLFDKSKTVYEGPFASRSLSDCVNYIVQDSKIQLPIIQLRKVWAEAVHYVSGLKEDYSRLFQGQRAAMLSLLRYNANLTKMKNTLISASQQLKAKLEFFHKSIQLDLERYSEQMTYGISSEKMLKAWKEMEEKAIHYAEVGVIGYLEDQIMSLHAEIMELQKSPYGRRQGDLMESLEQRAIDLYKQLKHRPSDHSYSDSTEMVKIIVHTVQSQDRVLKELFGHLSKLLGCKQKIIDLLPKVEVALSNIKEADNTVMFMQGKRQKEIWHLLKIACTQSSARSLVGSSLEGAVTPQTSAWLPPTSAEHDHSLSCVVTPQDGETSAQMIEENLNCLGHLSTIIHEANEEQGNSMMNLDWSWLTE", "assay": "Inhibition of human full length wild type IKKalpha expressed in mammalian system at 1 uM by KINOMEscan analysis relative to control"}, "[9]": {"target": "Dual specificity mitogen-activated protein kinase kinase 1 (Homo sapiens) (UniProt Q02750)", "sequence (Q02750 whole entry)": "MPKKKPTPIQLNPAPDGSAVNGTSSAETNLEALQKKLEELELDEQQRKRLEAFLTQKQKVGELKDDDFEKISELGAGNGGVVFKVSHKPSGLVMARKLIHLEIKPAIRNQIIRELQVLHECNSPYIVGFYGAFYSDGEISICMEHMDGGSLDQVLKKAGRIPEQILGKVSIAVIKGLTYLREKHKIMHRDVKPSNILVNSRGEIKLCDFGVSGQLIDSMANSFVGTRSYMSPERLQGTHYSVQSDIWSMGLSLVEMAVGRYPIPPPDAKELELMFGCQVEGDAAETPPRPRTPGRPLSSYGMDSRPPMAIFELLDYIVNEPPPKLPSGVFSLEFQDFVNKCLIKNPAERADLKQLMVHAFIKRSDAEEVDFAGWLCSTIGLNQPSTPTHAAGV", "assay": "Inhibition of human full length wild type MEK1 expressed in mammalian system at 1 uM by KINOMEscan analysis relative to control"}, "[10]": {"target": "Serine/threonine-protein kinase Nek2 (Homo sapiens) (UniProt P51955)", "assay": "Inhibition of human partial length wild type NEK2 expressed in bacterial system at 1 uM by KINOMEscan analysis relative to control"}, "[11]": {"target": "Serine/threonine-protein kinase PAK 2 (Homo sapiens) (UniProt Q13177)", "assay": "Inhibition of human partial length wild type PAK2 (P151/R525) expressed in bacterial system at 1 uM by KINOMEscan analysis relative to control"}, "[12]": {"target": "Tyrosine-protein kinase receptor TYRO3 (Homo sapiens) (UniProt Q06418)", "sequence (Q06418 whole entry)": "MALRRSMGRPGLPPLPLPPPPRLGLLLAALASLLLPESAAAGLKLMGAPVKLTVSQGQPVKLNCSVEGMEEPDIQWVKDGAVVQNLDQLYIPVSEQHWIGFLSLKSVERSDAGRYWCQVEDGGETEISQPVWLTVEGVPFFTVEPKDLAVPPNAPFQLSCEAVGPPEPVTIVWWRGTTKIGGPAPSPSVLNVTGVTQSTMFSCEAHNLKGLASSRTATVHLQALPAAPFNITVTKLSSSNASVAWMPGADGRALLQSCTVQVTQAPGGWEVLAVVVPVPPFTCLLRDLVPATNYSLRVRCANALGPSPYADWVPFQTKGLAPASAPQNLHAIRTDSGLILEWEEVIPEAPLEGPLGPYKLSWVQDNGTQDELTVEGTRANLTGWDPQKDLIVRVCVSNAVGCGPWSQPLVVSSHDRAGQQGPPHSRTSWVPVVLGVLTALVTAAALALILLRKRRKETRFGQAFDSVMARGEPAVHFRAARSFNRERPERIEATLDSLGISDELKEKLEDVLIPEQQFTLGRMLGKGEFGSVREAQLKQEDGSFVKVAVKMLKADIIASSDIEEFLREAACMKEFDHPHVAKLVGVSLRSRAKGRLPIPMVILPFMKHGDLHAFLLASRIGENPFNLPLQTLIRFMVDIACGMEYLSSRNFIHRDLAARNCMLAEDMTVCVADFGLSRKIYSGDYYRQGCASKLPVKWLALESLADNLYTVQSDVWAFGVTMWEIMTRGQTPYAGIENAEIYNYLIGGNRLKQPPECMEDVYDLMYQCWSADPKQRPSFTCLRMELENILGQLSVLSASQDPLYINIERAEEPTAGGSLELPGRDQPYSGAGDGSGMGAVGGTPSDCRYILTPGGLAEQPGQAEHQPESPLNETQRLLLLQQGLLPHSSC", "assay": "Inhibition of RSE (unknown origin) at 1 uM relative to control"}, "[13]": {"assay": "AUClast in ICR mouse at 5 mg/kg, iv single dose measured upto 24 hrs", "assay_type": "ADME, organism-based", "parameters": "dose 5 mg/kg, time < 24 hrs, route iv", "conditions": "in vivo"}, "[14]": {"assay": "Observed AUC (infinitive) in ICR mouse at 5 mg/kg, sc single dose measured upto 24 hrs", "assay_type": "ADME, organism-based", "parameters": "time < 24 hrs, dose 5 mg/kg, route sc", "conditions": "in vivo"}},
  "data": [
    {"smiles": "C=CC(=O)Nc1ccc(C(=O)Nc2n[nH]c3ccc(-c4cncc(NC[C@@H](O)c5ccccc5)c4)cc23)cc1", "values": [
      {"measurement": "IC50", "setting": "[1]", "value": 1840, "unit": "nM"},
      {"measurement": "inhibition", "setting": "[2]", "value": 57, "unit": "%"},
      {"measurement": "inhibition", "setting": "[3]", "value": "< 50", "unit": "%"},
      {"measurement": "inhibition", "setting": "[4]", "value": "< 50", "unit": "%"},
      {"measurement": "inhibition", "setting": "[5]", "value": "< 50", "unit": "%"},
      {"measurement": "inhibition", "setting": "[6]", "value": "< 50", "unit": "%"},
      {"measurement": "inhibition", "setting": "[7]", "value": "< 50", "unit": "%"},
      {"measurement": "inhibition", "setting": "[8]", "value": "< 50", "unit": "%"},
      {"measurement": "inhibition", "setting": "[9]", "value": "< 50", "unit": "%"},
      {"measurement": "inhibition", "setting": "[10]", "value": "< 50", "unit": "%"},
      {"measurement": "inhibition", "setting": "[11]", "value": "< 50", "unit": "%"},
      {"measurement": "inhibition", "setting": "[12]", "value": "< 50", "unit": "%"},
      {"measurement": "AUC(0-t) at 24 h", "setting": "[13]", "value": 26900, "unit": "ng·h/mL"},
      {"measurement": "AUC(0-inf)", "setting": "[14]", "value": 17400, "unit": "ng·h/mL"}
    ]}
  ]
}
